In the test the test system is seeds of Striga (Striga hermonthica). The test can be described thus: Germination inhibition test of Striga seeds. Format: in vivo. The method, then: The coadministration of the GR24 or the GR24 and the compound 25 was performed on seeds of Striga (Striga hermonthica) pretreated for one week at 30° C. The GR24 treatment was performed with 0.1 μM, and the compound 25 treatment was performed with 50 μM or 100 μM.

Regarding `CC1=CC(O/C=C2/C(=O)O[C@@H]3c4ccccc4C[C@H]23)OC1=O` (some centres unmarked) [GR24], for the setting “GR24 0.1 μM added”, the “germination of the Striga seeds” value is “germination of the Striga seeds is accelerated”. Where the note is “GR24 0.1 μM alone, compound 25 0 μM”, the “Germination rate of striga seed” value turned out to be 30.92%.
